From patent publication US9226982B2, “Gall bladder imaging agent and its preparation method” (INSTITUTE OF NUCLEAR ENERGY RESEARCH ATOMIC ENERGY COUNCIL, …, priority 2012, dated 2016)

Tests used:
ASGPR = target: T1, ASGPR (Mus musculus, UniProt P24721+P34927); test: Binding strength between carbohydrate chain peptide and mice liver cell (competition with Eu-ASOR, time-resolved fluorescence)
T1 construct: host or cells: mouse liver cells (hepatocytes) cultured on 24-well plates
T1 sequence (P34927 1-284): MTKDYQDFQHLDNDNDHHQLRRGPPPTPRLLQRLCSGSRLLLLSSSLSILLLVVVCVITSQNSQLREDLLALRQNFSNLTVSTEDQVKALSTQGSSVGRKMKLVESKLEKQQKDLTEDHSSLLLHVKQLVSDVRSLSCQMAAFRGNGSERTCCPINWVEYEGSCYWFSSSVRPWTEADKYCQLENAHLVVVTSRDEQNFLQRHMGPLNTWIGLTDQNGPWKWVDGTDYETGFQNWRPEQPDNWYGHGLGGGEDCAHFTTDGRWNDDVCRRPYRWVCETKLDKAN
T1 sequence (P24721 1-301): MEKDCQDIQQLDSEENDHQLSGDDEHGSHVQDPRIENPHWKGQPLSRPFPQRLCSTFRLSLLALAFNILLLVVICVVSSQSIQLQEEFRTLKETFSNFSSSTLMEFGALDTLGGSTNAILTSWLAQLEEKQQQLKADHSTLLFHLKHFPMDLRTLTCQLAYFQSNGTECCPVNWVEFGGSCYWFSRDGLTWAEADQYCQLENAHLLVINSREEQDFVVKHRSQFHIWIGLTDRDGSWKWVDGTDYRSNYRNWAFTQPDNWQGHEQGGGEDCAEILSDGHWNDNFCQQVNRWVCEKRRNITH
Description: The binding strength between carbohydrate chain peptide and a mice liver cell uses Eu-asialo-orosomucoid (Eu-ASOR) as a reference substance and compares whether carbohydrate chain peptides such as DCM-Lys(ah-GalNAc)3, […] larger binding capacity to a mice liver cell than Eu-ASOR. IC50 (50% inhibitory concentration) represents the binding capacity. Smaller IC50 represents larger binding capacity. Mice liver cells are purchased from Lonza biotechnology company in State of Maryland, which are placed and cultivated on a 24-well plate in advance. Reaction takes place at each well. […] Perform oscillating culture for 1 hours. Use an ammonium-chloride-containing liver cell base culture medium to wash away substances that are not bonded to liver cells. Perform time-resolved fluorescence analysis, namely, add an enhancer (15 μM of β-naphthoyl trifluoroacetone, 50 μM of tri-n-octyl-phosphine oxide, 0.1M of potassium hydrogen phthalate, and 0.1% of Triton X-100 in 0.1M of acetic acid, pH of 3.2). The enhancer forms an Eu chelate with Eu^3+ and emits light of 615 nm when energized by 340 nm. The logarithmic value of the concentration of carbohydrate chain peptide is taken as X-axis, and the emitted fluorescence value is taken as the Y-axis. […] However, the binding between DCM-Lys(Gah-GalNAc)3 and ASGPR is 10 times as large as the binding strength of YEE and YDD.

[1] = in vivo
Description: Tyrosine-glutamyl-glutamic acid (YEE) and tyrosine-aspartyl-aspartic acid (YDD) are first proposed by Lee et al. (1983). Tyrosine-glutamyl-glutamyl-glutamic acid (YEEE) is an improved invention by Chen et al. (ROC Patent TW1240002, 2000). The binding force between double-chain galactose amino peptide proposed by Lee et al. in 1983 and a liver cell is 1000 times as large as that of single-chain galactose amino peptide. The binding force between triple-chain galactose amino peptide and a liver cell is 10^6 times as large as that of sing-chain galactose amino peptide. Our laboratory has synthesized DTPA-hexa-lactose with a single lysine derivative earlier, which has very high specific radioactivity with the In-111 label and has a very desirable effect of accumulation at the liver in animal experiments. However, our animal experiments have shown that In-111-DTPA-hexa-lactose stays at the liver very stably for at least half an hour, and it is actually not easy to observe changes of absorption of the gall bladder in the entire imaging process. Therefore, In-111-DTPA-hexa-lactose is suitable for use in remaining liver function test or measurement of remaining liver after liver resection, but is not very suitable for use as a gall bladder imaging agent.

## NCCCCCC(=O)N[C@@H](CC(=O)NCCCC[C@@H](C(=O)NCCCCCCO[C@@H]1O[C@H](CO)[C@@H](O[C@@H]2O[C@H](CO)[C@H](O)[C@H](O)[C@H]2O)[C@H](O)[C@H]1O)N(CC(=O)NCCCCCCO[C@@H]1O[C@H](CO)[C@@H](O[C@@H]2O[C@H](CO)[C@H](O)[C@H](O)[C@H]2O)[C@H](O)[C@H]1O)CC(=O)NCCCCCCO[C@@H]1O[C@H](CO)[C@@H](O[C@@H]2O[C@H](CO)[C@H](O)[C@H](O)[C@H]2O)[C@H](O)[C@H]1O)C(=O)NCCCC[C@@H](C(=O)NCCCCCCO[C@@H]1O[C@H](CO)[C@@H](O[C@@H]2O[C@H](CO)[C@H](O)[C@H](O)[C@H]2O)[C@H](O)[C@H]1O)N(CC(=O)NCCCCCCO[C@@H]1O[C@H](CO)[C@@H](O[C@@H]2O[C@H](CO)[C@H](O)[C@H](O)[C@H]2O)[C@H](O)[C@H]1O)CC(=O)NCCCCCCO[C@@H]1O[C@H](CO)[C@@H](O[C@@H]2O[C@H](CO)[C@H](O)[C@H](O)[C@H]2O)[C@H](O)[C@H]1O [AHA-Asp[DCM-Lys(ahLac)3]2]
ASGPR; compared with YEE and YDD
  binding strength to ASGPR compared with YEE and YDD (in words): same binding strength as YEE and YDD

## CC(=O)N[C@H]1[C@H](OCCCCCCNC(=O)CNC(=O)CN(CC(=O)NCC(=O)NCCCCCCO[C@@H]2O[C@H](CO)[C@H](O)[C@H](O)[C@H]2NC(C)=O)[C@@H](CCCCN)C(=O)NCC(=O)NCCCCCCO[C@@H]2O[C@H](CO)[C@H](O)[C@H](O)[C@H]2NC(C)=O)O[C@H](CO)[C@H](O)[C@@H]1O [DCM-Lys(GahGalNAc)3]
ASGPR; compared with YEE and YDD
  binding strength to ASGPR relative to YEE and YDD: 10 times
ASGPR; mice liver cells, 10 nM Eu-ASOR as reference substance, 1 hour culture
  IC50: 1 nM

## O=C(O)CN(CCN(CC(=O)O)CC(=O)O)CCN(CC(=O)O)CC(=O)NCCCCCC(=O)N[C@@H](CC(=O)NCCCC[C@@H](C(=O)NCCCCCCO[C@@H]1O[C@H](CO)[C@@H](O[C@@H]2O[C@H](CO)[C@H](O)[C@H](O)[C@H]2O)[C@H](O)[C@H]1O)N(CC(=O)NCCCCCCO[C@@H]1O[C@H](CO)[C@@H](O[C@@H]2O[C@H](CO)[C@H](O)[C@H](O)[C@H]2O)[C@H](O)[C@H]1O)CC(=O)NCCCCCCO[C@@H]1O[C@H](CO)[C@@H](O[C@@H]2O[C@H](CO)[C@H](O)[C@H](O)[C@H]2O)[C@H](O)[C@H]1O)C(=O)NCCCC[C@@H](C(=O)NCCCCCCO[C@@H]1O[C@H](CO)[C@@H](O[C@@H]2O[C@H](CO)[C@H](O)[C@H](O)[C@H]2O)[C@H](O)[C@H]1O)N(CC(=O)NCCCCCCO[C@@H]1O[C@H](CO)[C@@H](O[C@@H]2O[C@H](CO)[C@H](O)[C@H](O)[C@H]2O)[C@H](O)[C@H]1O)CC(=O)NCCCCCCO[C@@H]1O[C@H](CO)[C@@H](O[C@@H]2O[C@H](CO)[C@H](O)[C@H](O)[C@H]2O)[C@H](O)[C@H]1O [In-111-DTPA-hexa-lactose, metal not drawn]
[1]
  time it stays at the liver very stably: at least half an hour
